Entries after “also recorded” stand apart in the source; their conditions may differ. Values belong to the molecule of their own block, whether it stands above or below them.
Experiments:
B. licheniformis D-GPase [1] = molecular target: T1, B. licheniformis D-GPase (Bacillus licheniformis, UniProt Q65CZ1); experiment: Effect of ADP and inorganic phosphate on D-GPase activity; type: biochemical
T1 construct: about 25 kDa by gel filtration
T1 sequence (Q65CZ1 1-216): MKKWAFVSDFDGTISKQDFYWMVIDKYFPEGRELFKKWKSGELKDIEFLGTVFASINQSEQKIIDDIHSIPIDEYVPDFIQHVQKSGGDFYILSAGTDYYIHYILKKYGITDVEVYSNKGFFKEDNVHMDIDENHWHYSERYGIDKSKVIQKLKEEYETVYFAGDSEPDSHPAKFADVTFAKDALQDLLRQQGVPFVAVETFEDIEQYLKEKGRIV
Method: GPase activity was measured by combining cell extract and the appropriate stereoisomer(s) (DL or L) of GP, incubating the mixture, terminating the reaction with acid, and determining the glycerol content by high-performance liquid chromatography (HPLC) analysis. Assay mixtures consisted of, in a total of 500 μl:25 mM MgCl2 ; 25-50 mM PIPES [piperazine-N,N'-bis(2-ethanesulfonic acid)], pH 7.1; 25-100 mM substrate; and the required volume of cell extract. Incubations were carried out at 37° C. for 30-150 min in microcentrifuge tubes, then 72 μl of 20% trichloroacetic acid (TCA) was added (2.5% final) to each tube to stop the reaction. The samples were spun in a microcentrifuge to remove any precipitate, and the supernatants were filtered through Supor-200 0.2 μm membrane filters (Gelman Sciences, Ann Arbor, Mich.) and analyzed for glycerol by HPLC. Assays for dephosphorylation of other compounds were also analyzed by HPLC (for the dephosphorylated compound) and carried out in the same way as the assays with GP as substrate. Assays for p-nitrophenyl phosphate (PNPP) hydrolysis were the same as with GP as substrate but were carried out with 1.5 mM PNPP in microtiter plates, and absorbance at 420 nm was used to measure the extent of hydrolysis of PNPP. Calf intestinal alkaline phosphatase was used as a standard to ensure that PNPP could be hydrolyzed under the conditions of the assay.
Assays that were analyzed for inorganic phosphate instead of glycerol were carried out using the procedure of Marsh, Biochim. […] Blanks were identical assays except without substrate.

B. licheniformis D-GPase [2] = molecular target: T1, B. licheniformis D-GPase; type: biochemical; settings: for Relative activity: chloride of the cation added at 25 mM
Method: (§1) GPase activity was measured by combining cell extract and the appropriate stereoisomer(s) (DL or L) of GP, incubating the mixture, terminating the reaction with acid, and determining the glycerol content by high-performance liquid chromatography (HPLC) analysis. Assay mixtures consisted of, in a total of 500 μl:25 mM MgCl2; 25-50 mM PIPES [piperazine-N,N'-bis(2-ethanesulfonic acid)], pH 7.1; 25-100 mM substrate; and the required volume of cell extract. Incubations were carried out at 37° C. for 30-150 min in microcentrifuge tubes, then 72 μl of 20% trichloroacetic acid (TCA) was added (2.5% final) to each tube to stop the reaction. The samples were spun in a microcentrifuge to remove any precipitate, and the supernatants were filtered through Supor-200 0.2 μm membrane filters (Gelman Sciences, Ann Arbor, Mich.) and analyzed for glycerol by HPLC. Assays for dephosphorylation of other compounds were also analyzed by HPLC (for the dephosphorylated compound) and carried out in the same way as the assays with GP as substrate. Assays for p-nitrophenyl phosphate (PNPP) hydrolysis were the same as with GP as substrate but were carried out with 1.5 mM PNPP in microtiter plates, and absorbance at 420 nm was used to measure the extent of hydrolysis of PNPP. Calf intestinal alkaline phosphatase was used as a standard to ensure that PNPP could be hydrolyzed under the conditions of the assay.
L-GPases reported in the literature require divalent magnesium. Therefore, the inventors tested the effects of addition of the chlorides of three divalent cations: magnesium, manganese, and calcium (25 mM each).

B. licheniformis D-GPase [3] = molecular target: T1, B. licheniformis D-GPase; experiment: GPase activity assay, substrate specificity (HPLC of glycerol or dephosphorylated compound); type: biochemical; settings: PNPP at 1.5 mM read at 420 nm
Method: as §1
Glycerol in fermentation broths and assay mixtures was measured by HPLC. The mobile phase was 0.01N H2 SO4, run at a flow rate of 0.6 ml/min through an Aminex HPX-87H organic acids column (Bio-Rad, Hercules, Calif.), which was maintained at 65° C. Samples were injected by a model AS-100 autosampler, and chromatograms were printed by a model 3392A integrator; the detector was a model 1770 differential refractometer (all from Bio-Rad).
Upon the finding that a GPase was present in B. licheniformis extracts, the inventors sought to determine which GP isomers are dephosphorylated by the enzyme and whether some other common phosphorylated metabolites can also be accepted as substrates. Because the initial assays were conducted with DL-GP, which also contained a small amount of β-GP, the specificity of the enzyme was unclear. HPLC chromatograms of reactions were run with crude cell extract and either DL-GP, L-GP, or β-GP. […] The low activity with pure β-GP rules out the possibility that the activity seen in assays with DL-GP is due to the presence of β-GP as an impurity in the DL-GP preparation.

threonine deaminase = settings: cited from earlier work
β-galactosidase = settings: read-out: Km of β-galactosidase for lactose; cited from earlier work
carbonic anhydrase = settings: read-out: Km of carbonic anhydrase for carbon dioxide; cited from earlier work
[S. cerevisiae] α-GPase = Gancedo et al. 1968; cited from earlier work

D-GPase activity retained (B. licheniformis D-GPase [1]; in the presence of 25 mM inorganic phosphate, in vitro hydrolysis of D-GP): 75% | inhibition of D-GPase activity (B. licheniformis D-GPase [1]; inorganic phosphate present in assays of B. licheniformis extracts): did not acutely inhibit
Molecule: O=P(O)(O)O [inorganic phosphate]

Molecule: [Mn+2] [Mn^2+]
Relative activity (B. licheniformis D-GPase [2]): 0.53

Molecule: O=P(O)(O)OC[C@H]1OC(O)[C@H](O)[C@@H](O)[C@@H]1O (some centres unmarked) [glucose-6-phosphate]
accepted as substrate / hydrolysis by D-GPase (B. licheniformis D-GPase [3]): little or no hydrolysis; also recorded: does not accept

Molecule: Nc1ncnc2c1ncn2[C@@H]1O[C@H](COP(=O)(O)OP(=O)(O)O)[C@@H](O)[C@H]1O [ADP]
effect on specificity and level of D-GPase activity (B. licheniformis D-GPase [1]; 9 mM ADP added to the assays): neither the specificity nor the level of activity of D-GPase was affected

Molecule: D-glyceraldehyde phosphate
accepted as substrate / hydrolysis by D-GPase (B. licheniformis D-GPase [3]; phosphate): little or no hydrolysis; also recorded: does not accept

Molecule: C[C@@H](O)[C@H](N)C(=O)O [threonine]
Km (threonine deaminase): ~5 mM

accepted as substrate / hydrolysis by D-GPase (B. licheniformis D-GPase [3]): does not accept
Molecule: O=P(O)(O)OC[C@H](O)CO [L-α-glycerophosphate]

Molecule: O=C(CO)COP(=O)(O)O [dihydroxyacetone phosphate]
accepted as substrate / hydrolysis by D-GPase (B. licheniformis D-GPase [3]; phosphate): little or no hydrolysis; also recorded: does not accept

accepted as substrate / hydrolysis by D-GPase (B. licheniformis D-GPase [3]): does not accept
Molecule: O=P(O)(O)OC(CO)CO [β-glycerophosphate]

Molecule: OC[C@H]1O[C@@H](O[C@H]2[C@H](O)[C@@H](O)C(O)O[C@@H]2CO)[C@H](O)[C@@H](O)[C@H]1O (some centres unmarked) [lactose]
Km (β-galactosidase): ~4 mM

Molecule: O=C=O [carbon dioxide]
Km (carbonic anhydrase): ~8 mM

Molecule: [Ca+2] [Ca^2+]
inhibition of D-GPase activity by the cation (B. licheniformis D-GPase [2]; 25 mM chloride): does not inhibit D-GPase activity | Relative activity (B. licheniformis D-GPase [2]): 0.08

Molecule: O=C(O)[C@H](O)COP(=O)(O)O [D-3-phosphoglyceric acid]
accepted as substrate / hydrolysis by D-GPase (B. licheniformis D-GPase [3]): little or no hydrolysis; also recorded: does not accept

Molecule: O=P(O)(O)OC[C@@H](O)CO [D-GP, D-α-glycerophosphate]
efficiency of α-GPase on D-GP relative to that on L-GP ([S. cerevisiae] α-GPase): 1/30

Molecule: [Mg+2] [Mg^2+]
Relative activity (B. licheniformis D-GPase [2]): 1.00

— patent US5733749A, “Glycerol phosphatase with stereo-specific activity” (priority 1995, dated 1998)
